Here are results for 36 compounds from patent publication US7906522B2, “2-aminoquinazoline derivatives” (Kyowa Hakko Kirin Co., Ltd, priority 2005, dated 2011).

Structures are written as SMILES.

In this experiment the target is T1, Activated human p38α (Homo sapiens, UniProt Q16539).
T1 construct: purchased Upstate Biotechnology Inc. 14-251
T1 sequence (Q16539 whole entry): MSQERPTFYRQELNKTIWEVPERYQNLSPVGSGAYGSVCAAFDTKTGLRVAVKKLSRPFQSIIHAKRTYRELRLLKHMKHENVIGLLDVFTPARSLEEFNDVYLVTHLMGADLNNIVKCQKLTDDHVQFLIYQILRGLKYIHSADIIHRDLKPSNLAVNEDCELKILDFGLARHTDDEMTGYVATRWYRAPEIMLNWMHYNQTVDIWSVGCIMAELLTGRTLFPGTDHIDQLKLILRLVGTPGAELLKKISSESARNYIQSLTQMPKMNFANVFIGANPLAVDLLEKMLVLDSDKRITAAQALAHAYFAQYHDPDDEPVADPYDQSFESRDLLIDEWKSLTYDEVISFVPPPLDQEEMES
The experiment is described as follows: p38MAP kinase inhibition test. The experiment is classed as biochemical. The note with it: at a concentration of 1 μmol/L; substrate myelin basic protein, ATP 20 μmol/L, [γ-32P]ATP; read-out: enzyme inhibitory activity. On the procedure:
p38MAP Kinase Inhibition Test
Activated human p38α was purchased from Upstate Biotechnology Inc. (Catalog No. 14-251). P38MAP kinase inhibitory activity was measured by the procedure described below with reference to the method by Whitmarsh A. J. and Davis R. J. [Methods in Enzymology (Method. Enzymol.), vol. 332, p. 319-336 (2001)]. As the substrate to be phosphorylated, a myelin basic protein (Catalog No. 133-13493, Wako Pure Chemical Industries, Ltd.) (20 μg/assay) was used. The reaction was carried out in a solution containing 3-[N-Morpholino]propanesulfonic acid (MOPS) (20 mmol/L, pH 7.2), β-glycerophosphoric acid (Sigma Corp.) (25 mmol/L), ethylenebis(oxyethylenenitrilo)tetraacetic acid (EGTA) (1 mmol/L), […] (Sigma-Aldrich Corp.) (1 mmol/L), dithiothreitol (DTT, Wako Pure Chemical Industries, Ltd.) (1 mmol/L), adenosine 5′-triphosphate (ATP, Sigma Corp.) (20 μmol/L), and MgCl2 (18.75 mmol/L) (total 40 μL/assay). The reaction was started by adding human p38α and [γ-^32P]ATP (1 μCi/assay), and incubation was performed at 30° C. for 15 minutes. The reaction was terminated by adding 4.5% v/v phosphoric acid (10 μL/well). Then, 45 μL of the reaction mixture was adsorbed onto phosphocellulose paper (p81 paper, Code No. 3698023, Whatman International, Maidstone, UK). The phosphocellulose paper was washed with 0.75% v/v phosphoric acid. Then, the radioactivity of the phosphorylated myelin basic protein ([^32P]) remaining on the phosphocellulose paper was measured with a scintillation counter (TRI-CARB2700TR, PerkinElmer, Boston, Mass., USA) using program No. 27 (data mode: cpm, measurement time: 1 min, Background substract: none, energy range measured: LL 0.0-UL 2000) or a scintillation counter (LS6500, BeckmanCoulter, Fullerton, Calif., USA) using program No. 17 (data mode: cpm, measurement time: 1 min, Background substract: none, energy range measured: high). The test compound was dissolved in DMSO before addition.
Turning to `CC(C)Nc1ncc2cc(-c3ccccc3Cl)c(O)c(-c3ccccn3)c2n1` [Compound 87, 6-(2-Chlorophenyl)-2-isopropylamino-7-hydroxy-8-(2-pyridyl)quinazoline], the inhibition at 1 µM is no less than 50%. In the case of `CC(C)Nc1ncc2cc(-c3ccccc3Cl)c(O)c(I)c2n1` [Compound 88, 6-(2-Chlorophenyl)-7-hydroxy-8-iodo-2-(isopropylamino)quinazoline], the inhibition at 1 µM was no less than 50%.

For `COCOc1c(-c2ccccc2Cl)cc2cnc(NC(C)C)nc2c1-c1ccc(C(=O)O)cc1` [Compound 91, 8-(4-Carboxyphenyl)-6-(2-chlorophenyl)-2-isopropylamino-7-(methoxymethyloxy)quinazoline], the inhibition at 1 µM is no less than 50%. Next, `CC(C)Nc1ncc2cc(-c3ccccc3Cl)c(O)c(-c3ccc(C(=O)O)cc3)c2n1` [Compound 92, 8-(4-Carboxyphenyl)-6-(2-chlorophenyl)-7-hydroxy-2-(isopropylamino)quinazoline]: no less than 50%; `COCOc1c(-c2ccccc2Cl)cc2cnc(NC(C)C)nc2c1-c1cccc(C(=O)O)c1` [Compound 93, 8-(3-Carboxyphenyl)-6-(2-chlorophenyl)-2-isopropylamino-7-(methoxymethyloxy)quinazoline]: no less than 50%; `CC(C)Nc1ncc2cc(-c3ccccc3Cl)c(O)c(-c3cccc(C(=O)O)c3)c2n1` [Compound 94, 8-(3-Carboxyphenyl)-6-(2-chlorophenyl)-7-hydroxy-2-(isopropylamino)quinazoline]: no less than 50%.

Consider `CC(C)Nc1ncc2cc(-c3ccccc3Cl)c(O)c(-c3ccc(CC(=O)O)cc3)c2n1` [Compound 95, 8-[4-(Carboxymethyl)phenyl]-6-(2-chlorophenyl)-7-hydroxy-2-(isopropylamino)quinazoline], for which the inhibition at 1 µM was no less than 50%. Consider `CC(C)Nc1ncc2cc(-c3ccccc3Cl)c(O)c(-c3cccc(CC(=O)O)c3)c2n1` [Compound 96, 8-[3-(Carboxymethyl)phenyl]-6-(2-chlorophenyl)-7-hydroxy-2-(isopropylamino)quinazoline], for which the inhibition at 1 µM was no less than 50%. For the compound `CC(C)Nc1ncc2cc(-c3ccccc3Cl)c(O)c(-c3ccccc3Cl)c2n1` [Compound 98, 6,8-Di(2-chlorophenyl)-7-hydroxy-2-(isopropylamino)quinazoline], the inhibition at 1 µM is no less than 50%. As to `COCOc1c(-c2ccccc2Cl)cc2cnc(NC(C)C)nc2c1-c1ccccc1F` [Compound 99, 6-(2-Chlorophenyl)-8-(2-fluorophenyl)-2-isopropylamino-7-(methoxymethyloxy)quinazoline], the inhibition at 1 µM is no less than 50%. As for `CC(C)Nc1ncc2cc(-c3ccccc3Cl)c(O)c(-c3ccccc3F)c2n1` [Compound 100, 6-(2-Chlorophenyl)-8-(2-fluorophenyl)-7-hydroxy-2-(isopropylamino)quinazoline], the inhibition at 1 µM was no less than 50%. Consider `CC(C)Nc1ncc2cc(-c3ccccc3Cl)c(O)c(-c3c(F)cccc3F)c2n1` [Compound 102, 6-(2-Chlorophenyl)-8-(2,6-difluorophenyl)-7-hydroxy-2-(isopropylamino)quinazoline], for which the inhibition at 1 µM is no less than 50%. For the compound `COc1cc2nc(NC(C)C)ncc2cc1C(=O)c1ccccc1` [Compound 109, 6-Benzoyl-2-isopropylamino-7-methoxyquinazoline], the inhibition at 1 µM was no less than 50%. As to `CC(C)Nc1ncc2cc(C(=O)c3ccccc3)c(O)cc2n1` [Compound 110, 6-Benzoyl-7-hydroxy-2-(isopropylamino)quinazoline], the inhibition at 1 µM is no less than 50%. As for `CCOC(=O)c1oc2c(-c3ccccc3Cl)cc3cnc(NC(C)C)nc3c2c1C` [Compound 111, 6-(2-Chlorophenyl)-8-ethoxycarbonyl-2-isopropylamino-9-methylfuro[2,3-h]quinazoline], the inhibition at 1 µM was no less than 50%. Then `CC(C)Nc1ncc2cc(-c3ccccc3Cl)c3oc(C(C)(C)O)cc3c2n1` [Compound 112, 6-(2-Chlorophenyl)-8-(1-hydroxy-1-methylethyl)-2-(isopropylamino)furo[2,3-h]quinazoline], with no less than 50%; and `COc1cc2nc(NC(C)C)ncc2cc1C(=O)c1ccccc1C` [Compound 113, 2-Isopropylamino-7-methoxy-6-(2-methylbenzoyl)quinazoline], with no less than 50%. As for `COc1cc2nc(NC(C)C)ncc2cc1C(=O)c1cccc(C)c1` [Compound 114, 2-Isopropylamino-7-methoxy-6-(3-methylbenzoyl)quinazoline], the inhibition at 1 µM was no less than 50%. Then `COc1cc2nc(NC(C)C)ncc2cc1C(=O)c1cccc(F)c1` [Compound 116, 6-(3-Fluorobenzoyl)-2-isopropylamino-7-methoxyquinazoline], with no less than 50%. For `COc1cc2nc(NC(C)C)ncc2cc1C(=O)c1cccc(Cl)c1` [Compound 117, 6-(3-Chlorobenzoyl)-2-isopropylamino-7-methoxyquinazoline], the inhibition at 1 µM was no less than 50%. With `Cc1cccc(C(=O)c2cc3cnc(NC(C)C)nc3cc2O)c1` [Compound 118, 7-Hydroxy-2-isopropylamino-6-(3-methylbenzoyl)quinazoline], the inhibition at 1 µM was no less than 50%. Then `Cc1ccccc1C(=O)c1cc2cnc(NC(C)C)nc2cc1O` [Compound 119, 7-Hydroxy-2-isopropylamino-6-(2-methylbenzoyl)quinazoline], with no less than 50%. Turning to `CC(C)Nc1ncc2cc(C(=O)c3cccc(Cl)c3)c(O)cc2n1` [Compound 120, 6-(3-Chlorobenzoyl)-7-hydroxy-2-(isopropylamino)quinazoline], the inhibition at 1 µM was no less than 50%. As to `COc1cccc(C(=O)c2cc3cnc(NC(C)C)nc3cc2O)c1` [Compound 121, 7-Hydroxy-2-isopropylamino-6-(3-methoxybenzoyl)quinazoline], the inhibition at 1 µM was no less than 50%. Consider `COc1ccccc1C(=O)c1cc2cnc(NC(C)C)nc2cc1O` [Compound 122, 7-Hydroxy-2-isopropylamino-6-(2-methoxybenzoyl)quinazoline], for which the inhibition at 1 µM is no less than 50%. On to `CC(C)Nc1ncc2cc(C(=O)c3cccc(O)c3)c(O)cc2n1` [Compound 123, 7-Hydroxy-6-(3-hydroxybenzoyl)-2-(isopropylamino)quinazoline], for which the inhibition at 1 µM was no less than 50%.

Turning to `CC(C)Nc1ncc2cc(C(=O)c3ccccc3Cl)c(O)cc2n1` [Compound 125, 6-(2-Chlorobenzoyl)-7-hydroxy-2-(isopropylamino)quinazoline], the inhibition at 1 µM is no less than 50%.

As to `CC(C)Nc1ncc2cc(C(=O)c3ccccc3F)c(O)cc2n1` [Compound 126, 6-(2-Fluorobenzoyl)-7-hydroxy-2-(isopropylamino)quinazoline], the inhibition at 1 µM is no less than 50%. In the case of `CC(C)Nc1ncc2cc(C(=O)c3ccc(F)c(Cl)c3)c(O)cc2n1` [Compound 127, 6-(3-Chloro-4-fluorobenzoyl)-7-hydroxy-2-(isopropylamino)quinazoline], the inhibition at 1 µM was no less than 50%. Consider `CC(C)Nc1ncc2cc(C(=O)c3ccc(F)c(F)c3)c(O)cc2n1` [Compound 129, 6-(3,4-Difluorobenzoyl)-7-hydroxy-2-(isopropylamino)quinazoline], for which the inhibition at 1 µM is no less than 50%. `CC(C)Nc1ncc2cc(C(=O)c3ccc(F)cc3)c(O)cc2n1` [Compound 131, 6-(4-Fluorobenzoyl)-7-hydroxy-2-(isopropylamino)quinazoline]: the inhibition at 1 µM is no less than 50%. Turning to `CC(C)Nc1ncc2cc(C(=O)c3cccc(F)c3)c(O)cc2n1` [Compound 132, 6-(3-Fluorobenzoyl)-7-hydroxy-2-(isopropylamino)quinazoline], the inhibition at 1 µM was no less than 50%. In the case of `CC(C)Nc1ncc2cc(C(=O)c3cc(F)cc(F)c3)c(O)cc2n1` [Compound 134, 6-(3,5-Difluorobenzoyl)-7-hydroxy-2-(isopropylamino)quinazoline], the inhibition at 1 µM was no less than 50%. In the case of `CC[C@H](C)Nc1ncc2cc(C(=O)c3cccc(C)c3)c(O)cc2n1` [Compound 135, (S)-2-(sec-Butylamino)-7-hydroxy-6-(3-methylbenzoyl)quinazoline], the inhibition at 1 µM was no less than 50%. Then `CS(=O)(=O)N1CCC(Nc2ncc3cc(C(=O)c4ccccc4)c(O)cc3n2)CC1` [Compound 136, 6-Benzoyl-7-hydroxy-2-[1-(methylsulfonyl)piperidin-4-ylamino]quinazoline], with no less than 50%; and `CCOC(=O)N1CCC(Nc2ncc3cc(C(=O)c4ccccc4)c(O)cc3n2)CC1` [Compound 137, 6-Benzoyl-2-[1-(ethoxycarbonyl)piperidin-4-ylamino]-7-hydroxyquinazoline], with no less than 50%.
